In ChEMBL document CHEMBL3992505, “Optimization of substituted imidazobenzodiazepines as novel asthma treatments” (Eur J Med Chem, 2017):

Assays:
[1] = biological target: T1, GABA-A receptor; alpha-1/beta-3/gamma-2 (Homo sapiens, UniProt P14867+P18507+P28472); test: Activity at GABAA alpha1beta3gamma2 receptor (unknown origin) expressed in HEK293T cells assessed as potentiation of GABA-mediated increase in channel current under holding potential at -80 mV at 1 uM by patch clamp assay; type: cell-based
T1 sequence (P14867 whole entry): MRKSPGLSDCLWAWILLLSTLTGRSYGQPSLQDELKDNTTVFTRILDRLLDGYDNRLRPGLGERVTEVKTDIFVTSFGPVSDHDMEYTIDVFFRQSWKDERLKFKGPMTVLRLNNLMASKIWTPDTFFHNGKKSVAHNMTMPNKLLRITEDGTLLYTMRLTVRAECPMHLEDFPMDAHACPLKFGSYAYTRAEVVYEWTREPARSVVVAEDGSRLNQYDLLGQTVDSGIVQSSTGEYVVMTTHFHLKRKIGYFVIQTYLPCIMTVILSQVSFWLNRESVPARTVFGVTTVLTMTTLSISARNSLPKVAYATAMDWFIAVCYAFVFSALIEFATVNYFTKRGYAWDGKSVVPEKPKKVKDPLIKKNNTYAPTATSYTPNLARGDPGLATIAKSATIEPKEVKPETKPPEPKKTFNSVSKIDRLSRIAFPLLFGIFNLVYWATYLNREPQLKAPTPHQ
T1 sequence (P18507 whole entry): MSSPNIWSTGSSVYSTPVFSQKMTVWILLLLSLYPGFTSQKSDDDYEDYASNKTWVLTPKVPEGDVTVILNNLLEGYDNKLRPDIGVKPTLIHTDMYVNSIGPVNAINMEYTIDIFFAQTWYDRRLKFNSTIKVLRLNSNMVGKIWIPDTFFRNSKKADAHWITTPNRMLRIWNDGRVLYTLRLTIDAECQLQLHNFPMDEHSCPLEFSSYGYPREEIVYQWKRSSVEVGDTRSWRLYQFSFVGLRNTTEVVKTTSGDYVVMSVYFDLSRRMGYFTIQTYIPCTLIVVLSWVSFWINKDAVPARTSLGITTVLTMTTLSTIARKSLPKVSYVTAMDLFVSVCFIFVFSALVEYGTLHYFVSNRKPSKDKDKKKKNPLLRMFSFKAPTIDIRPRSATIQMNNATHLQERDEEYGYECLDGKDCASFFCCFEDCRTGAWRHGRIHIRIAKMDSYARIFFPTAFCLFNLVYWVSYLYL
T1 sequence (P28472 whole entry): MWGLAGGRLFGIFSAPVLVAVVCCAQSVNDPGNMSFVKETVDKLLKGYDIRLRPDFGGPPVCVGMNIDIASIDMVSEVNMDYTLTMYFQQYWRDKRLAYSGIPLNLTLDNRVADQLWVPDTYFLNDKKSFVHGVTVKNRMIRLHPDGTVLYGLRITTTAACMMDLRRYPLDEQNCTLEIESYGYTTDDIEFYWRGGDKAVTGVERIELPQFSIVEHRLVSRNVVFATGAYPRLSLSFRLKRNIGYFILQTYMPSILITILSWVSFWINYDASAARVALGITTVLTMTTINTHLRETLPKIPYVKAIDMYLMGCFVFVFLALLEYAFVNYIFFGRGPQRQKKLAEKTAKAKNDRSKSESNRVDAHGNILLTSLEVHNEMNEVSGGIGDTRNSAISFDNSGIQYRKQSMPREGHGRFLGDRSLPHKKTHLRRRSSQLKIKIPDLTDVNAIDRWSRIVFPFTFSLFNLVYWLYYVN

[2] = biological target: GABA A receptor alpha-4/beta-3/gamma-2 (Homo sapiens) (UniProt P18507+P28472+P48169); test: Activity at GABAA alpha4beta3gamma2 receptor (unknown origin) expressed in HEK293T cells assessed as potentiation of GABA-mediated increase in channel current under holding potential at -80 mV at 1 uM by patch clamp assay; type: cell-based
Blood = test: Half life in mouse blood assessed as (S)-7-Methoxy-N-methyl-9-oxo-11,12,13,13a-tetrahydro-9H-benzo[e]imidazo[5,1-c]pyrrolo[1,2-a][1,4]diazepine-1-carboxamide at 5 mg/kg, ip by LC/MS/MS analysis; type: ADME, organism-based; conditions: in vivo

SMILES: COc1ccc2c(c1)C(=O)N1CCC[C@H]1c1c(C(=O)N(C)C)ncn1-2
- Activity [1]: 161 to 179%
- Activity [2]: 319 to 545%
- t1/2 (Blood): 24.3 min
